Measurements taken from patent US12109176B1, “Effect of glycerol on biofilm forming bacteria and fungi that changes the microbes sensitivity to pro and anti-biofilm non-toxic, non-bonded plasma amino acids and amino acid derivatives” (priority 2023, dated 2024).
Entries after “also recorded” stand apart in the source; their conditions may differ.

What was measured:
[1] = system: bacterial (S. aureus) biofilm; assay: Bacterial biofilm inhibition assay; format: cell-based, Staphylococcus aureus
Experimental: (§1) Two types of biofilm assays were performed: an inhibition assay and a disruption assay. The inhibition assay assesses the compound's ability to prevent biofilm development, while the disruption assay assesses the compound's ability to break up an existing mature biofilm.
(§2) All bacterial biofilm solutions were prepared in Tryptic Soy Broth (TSB), supplemented with 1% glucose (henceforth referred to as TSB-G). All subsequent procedures were performed in a manner that maintained sterility. A solution of each amino acid or an amino acid derivative to be tested was prepared in weight to volume concentrations ranging from 0.1-5.0%. Amino acids and amino acid derivatives were also tested in combinations. Compound solutions were homogenized with gentle agitation in the dark (4° C., 24 hours) before use.
(§3) 32 Amino acids and 2 amino acid derivatives of the amino acid serine that occur freely in human blood were tested. […] 31 of the 32 amino acids that were tested were the L-Isomers. Glycine has no stereoisomers. The 2 amino acid derivatives, ethanolamine and phosphoethanolamine were also tested. All biofilm assays were performed using 384-well non-tissue culture-treated polystyrene plates. The fungal species tested are as follows: Candida albicans, Candida guilliermondii, Candida parapsilosis, Candida glabrata, Candida tropicalis and Candida dubliniensis. The bacterial species tested are as follows: Staphylococci (standard wild type and methicillin-resistant strain USA300), Escherichia coli, Pseudomonas aeruginosa and Staphylococcus epidermidis.
(§4) Bacterial strains were streaked on Blood Agar plates (5% sheep blood in Tryptic Soy Broth) and incubated at 37° C. for 24 hours. A single colony from each strain to be tested was inoculated in a TSB broth and grown for 12 hours, at 37° C. with shaking (225 rpm). For the bacterial biofilm inhibition assays, 1 μL of saturated overnight cell culture was added to either 80 μL of TSB-G, or TSB-G supplemented with the amino acid compound solution to be tested, in a 384-well plate. The cells were allowed to adhere to the plate for 60 minutes at 37° C. without shaking. The media was carefully aspirated and 80 μL of TSB-G, or TSB-G supplemented with the amino acid compound solution was added to the plate. The plate was further incubated for 24 hours at 37° C. without shaking. Media was carefully aspirated and the biofilm was measured by optical density at 600 nm. Eight or twelve replicates were performed for each tested condition and the reported values are normalized to the control (TSB-G media only). For the bacterial biofilm disruption assays, 80 µL of TSB-G was added to the plate, along with 1 μL of overnight cell culture. The cells were allowed to adhere to the plate for 60 minutes at 37° C. with no shaking. The media was carefully aspirated and 80 μL of TSB-G was added to the plate. The plate was further incubated for 24 hours at 37° C. with no shaking. Media was carefully aspirated from the mature biofilm and 80 μL of TSB-G, or TSB-G supplemented with the amino acid to be tested, was gently added to the plate. The plate was further incubated for 24 hours at 37° C. without shaking. Media was aspirated and the biofilm was measured by optical density at 600 nm. Twelve replicates were performed for each tested condition and the reported values are normalized to the control (TSB-G media only).

[2] = system: bacterial (S. aureus) biofilm; assay: Bacterial biofilm disruption assay; format: cell-based, Staphylococcus aureus
Experimental: as §1, §2, §3, §4

bacterial biofilm = assay: In vitro testing on bacterial biofilm (inhibition and/or disruption); format: cell-based; settings: in vitro testing
Experimental: as §1, §2, §3, §4

[3] = system: bacterial and fungal biofilm; assay: In vitro testing on bacterial and fungal biofilm (assay not told apart); format: cell-based; settings: in vitro testing
Experimental: as §1, §2, §3
(§5) Fungal strains were streaked on Yeast Peptone Dextrose (YPD) agar plates and incubated at 30° C. for 48 hours. A single colony from each strain to be tested was inoculated into YPD broth and grown for 12 hours at 30° C., shaking at 225 rpm. […] The cells were allowed to adhere to the plate for 90 minutes at 37° C. with shaking (350 rpm). […] The plate was further incubated for 24 hours at 37° C. with shaking (350 rpm). Media was carefully aspirated and the biofilm was measured by optical density at 600 nm. […] The cells were allowed to adhere to the plate for 90 minutes at 37° C. with shaking (350 rpm). […] The plate was further incubated for 24 hours at 37° C. with shaking (350 rpm). […] The plate was further incubated for 24 hours at 37° C. with shaking (350 rpm). Media was carefully aspirated, and the biofilm was measured by optical density at 600 nm.
as §4, with “plate.” for “plate. The plate was further incubated for 24 hours at 37° C. without shaking. Media was aspirated and the biofilm was measured by optical density at 600 nm. Twelve replicates were performed for each tested condition and the reported values are normalized to the control (TSB-G media only).”

[4] = system: bacterial (S. aureus) biofilm and fungal biofilm (C. albicans); assay: Biofilm inhibition assay, bacterial and fungal taken together; format: cell-based; settings: symbol marks the assay
Experimental: as §1, §2, §3, §5
as §4, with “plate.” for “plate. The plate was further incubated for 24 hours at 37° C. without shaking. Media was aspirated and the biofilm was measured by optical density at 600 nm. Twelve replicates were performed for each tested condition and the reported values are normalized to the control (TSB-G media only).”

[5] = system: fungal biofilm (C. albicans); assay: Fungal biofilm disruption assay; format: cell-based, Candida albicans
Experimental: as §1, §2, §3, §5

fungal biofilm = assay: In vitro testing on fungal biofilm (inhibition and/or disruption); format: cell-based; settings: in vitro testing
Experimental: as §1, §2, §3, §5

[6] = Table F, in the presence of a sufficient concentration of glycerol
[7] = Table D, Neutral = no effect on the biofilm
[8] = Table E, in the absence of an infusion of glycerol

Structure (SMILES)	Reduce or Inhibit B Biofilm (dots: Disruption Biofilm Assay) ([2]; Table D, 0.1 to 5.0%)	Reduce or Inhibit B Biofilm (dots: Disruption Biofilm Assay) [2, 6]	effect on bacterial biofilm (in words) (bacterial biofilm)	Neutral (square: Inhibition Biofilm Assay) [4, 7]	Neutral (square: Inhibition Biofilm Assay) [4, 8]	Neutral (square: Inhibition Biofilm Assay) [4, 6]	Reduce or Inhibit F Biofilm (dots: Disruption Biofilm Assay) ([5]; Table D, 0.1 to 5.0%)	also measured
NC(CCCC(=O)O)C(=O)O (stereo not shown) [2 Aminoadipic Acid, 2-aminoadipic acid]	● (Single dot [ie. ●] signifies little effect on the Disruption Biofilm Assay (from about 10 to less than 30%))	● (Single dot [ie. ●] signifies little effect on the Disruption Biofilm Assay (from about 10 to less than 30%))	antibacterial biofilm effect	–	–	–	–	Reduce or Inhibit B Biofilm (squares: Inhibition Biofilm Assay) ([1]; Table D, 0.1 to 5.0%): ▪ (Single square [ie. ▪] signifies little effect on the Inhibition Biofilm Assay (from about 10 to less than 30%)); Reduce or Inhibit B Biofilm (squares: Inhibition Biofilm Assay) [1, 6]: ▪ (Single square [ie. ▪] signifies little effect on the Inhibition Biofilm Assay (from about 10 to less than 30%))
N[C@@H](Cc1c[nH]cn1)C(=O)O [Histidine, L-histidine]	–	–	–	▪ (Single square [ie. ▪] signifies little effect on the Inhibition Biofilm Assay (from about 10 to less than 30%))	▪ (Single square [ie. ▪] signifies little effect on the Inhibition Biofilm Assay (from about 10 to less than 30%))	▪ (Single square [ie. ▪] signifies little effect on the Inhibition Biofilm Assay (from about 10 to less than 30%))	–	effect on bacterial and fungal biofilm (in words) [3]: neutral, having no effect on biofilm; also recorded: neutral
N[C@@H](CO)C(=O)O [Serine, L-serine]	–	–	promoted bacterial biofilm formation	–	–	–	● (Single dot [ie. ●] signifies little effect on the Disruption Biofilm Assay (from about 10 to less than 30%))	Reduce or Inhibit F Biofilm (dots: Disruption Biofilm Assay) [5, 6]: ● (Single dot [ie. ●] signifies little effect on the Disruption Biofilm Assay (from about 10 to less than 30%))
NCCOP(=O)(O)O [Phospho-ethanolamine, phosphoethanolamine]	● (Single dot [ie. ●] signifies little effect on the Disruption Biofilm Assay (from about 10 to less than 30%))	● (Single dot [ie. ●] signifies little effect on the Disruption Biofilm Assay (from about 10 to less than 30%))	antibacterial biofilm effect	–	–	–	–	Reduce or Inhibit B Biofilm (squares: Inhibition Biofilm Assay) ([1]; Table D, 0.1 to 5.0%): ▪ (Single square [ie. ▪] signifies little effect on the Inhibition Biofilm Assay (from about 10 to less than 30%)); Reduce or Inhibit B Biofilm (squares: Inhibition Biofilm Assay) [1, 6]: ▪ (Single square [ie. ▪] signifies little effect on the Inhibition Biofilm Assay (from about 10 to less than 30%))
N[C@@H](Cc1c[nH]c2ccccc12)C(=O)O [Tryptophan, L-tryptophan]	–	–	promoted bacterial biofilm formation	–	–	–	● (Single dot [ie. ●] signifies little effect on the Disruption Biofilm Assay (from about 10 to less than 30%))	Reduce or Inhibit F Biofilm (dots: Disruption Biofilm Assay) [5, 6]: ● (Single dot [ie. ●] signifies little effect on the Disruption Biofilm Assay (from about 10 to less than 30%))
C[C@H](N)C(=O)O [Alanine, L-alanine]	–	–	promoted bacterial biofilm formation	▪ (Single square [ie. ▪] signifies little effect on the Inhibition Biofilm Assay (from about 10 to less than 30%))	▪ (Single square [ie. ▪] signifies little effect on the Inhibition Biofilm Assay (from about 10 to less than 30%))	▪ (Single square [ie. ▪] signifies little effect on the Inhibition Biofilm Assay (from about 10 to less than 30%))	● (Single dot [ie. ●] signifies little effect on the Disruption Biofilm Assay (from about 10 to less than 30%))	–
N[C@@H](CCSC[C@H](N)C(=O)O)C(=O)O [Cystathionine, L-cystathionine]	● (Single dot [ie. ●] signifies little effect on the Disruption Biofilm Assay (from about 10 to less than 30%))	● (Single dot [ie. ●] signifies little effect on the Disruption Biofilm Assay (from about 10 to less than 30%))	antibacterial biofilm effect	▪ (Single square [ie. ▪] signifies little effect on the Inhibition Biofilm Assay (from about 10 to less than 30%))	▪ (Single square [ie. ▪] signifies little effect on the Inhibition Biofilm Assay (from about 10 to less than 30%))	▪ (Single square [ie. ▪] signifies little effect on the Inhibition Biofilm Assay (from about 10 to less than 30%))	–	–
N[C@@H](Cc1ccc(O)cc1)C(=O)O [Tyrosine, L-tyrosine]	–	–	–	–	–	–	–	effect on bacterial and fungal biofilm (in words) [3]: neutral effect on biofilm; effect on bacterial and fungal biofilm (in words) ([3]; listed as tyrosine): neutral, having no effect on biofilm
N[C@@H](CCS)C(=O)O [Homocysteine, L-homocysteine]	–	–	–	–	–	–	–	effect on fungal biofilm (in words) (fungal biofilm): antifungal biofilm effects
N=C(N)NCCC[C@H](N)C(=O)O [Arginine, L-arginine]	–	–	promoted bacterial biofilm formation	–	–	–	–	Promote B Biofilm (squares: Inhibition Biofilm Assay) ([1]; Table D, 0.1 to 5.0%): ▪ (Single square [ie. ▪] signifies little effect on the Inhibition Biofilm Assay (from about 10 to less than 30%)); Promote B Biofilm (squares: Inhibition Biofilm Assay) [1, 8]: ▪ (Single square [ie. ▪] signifies little effect on the Inhibition Biofilm Assay (from about 10 to less than 30%))
